Data from patent publication US9782411B2, “{4-[5-(3-chloro-phenoxy)-oxazolo[5,4-d]pyrimidin-2-yl]-2,6-dimethyl-phenoxy}-acetic acid for use in the prevention or treatment of acute kidney injury” (Sanofi, priority 2013, dated 2017).
Read-outs that look alike come from different tables or passages of the source.

Experiments:
[1] = target: T1, human ERG (ether-a-go-go related gene) potassium channel (Homo sapiens, UniProt Q12809); experiment: hERG assay (patch clamp, CHO cells); assay type: cell-based
T1 construct: host or cells: CHO (Chinese Hamster Ovary)
T1 sequence (Q12809 whole entry): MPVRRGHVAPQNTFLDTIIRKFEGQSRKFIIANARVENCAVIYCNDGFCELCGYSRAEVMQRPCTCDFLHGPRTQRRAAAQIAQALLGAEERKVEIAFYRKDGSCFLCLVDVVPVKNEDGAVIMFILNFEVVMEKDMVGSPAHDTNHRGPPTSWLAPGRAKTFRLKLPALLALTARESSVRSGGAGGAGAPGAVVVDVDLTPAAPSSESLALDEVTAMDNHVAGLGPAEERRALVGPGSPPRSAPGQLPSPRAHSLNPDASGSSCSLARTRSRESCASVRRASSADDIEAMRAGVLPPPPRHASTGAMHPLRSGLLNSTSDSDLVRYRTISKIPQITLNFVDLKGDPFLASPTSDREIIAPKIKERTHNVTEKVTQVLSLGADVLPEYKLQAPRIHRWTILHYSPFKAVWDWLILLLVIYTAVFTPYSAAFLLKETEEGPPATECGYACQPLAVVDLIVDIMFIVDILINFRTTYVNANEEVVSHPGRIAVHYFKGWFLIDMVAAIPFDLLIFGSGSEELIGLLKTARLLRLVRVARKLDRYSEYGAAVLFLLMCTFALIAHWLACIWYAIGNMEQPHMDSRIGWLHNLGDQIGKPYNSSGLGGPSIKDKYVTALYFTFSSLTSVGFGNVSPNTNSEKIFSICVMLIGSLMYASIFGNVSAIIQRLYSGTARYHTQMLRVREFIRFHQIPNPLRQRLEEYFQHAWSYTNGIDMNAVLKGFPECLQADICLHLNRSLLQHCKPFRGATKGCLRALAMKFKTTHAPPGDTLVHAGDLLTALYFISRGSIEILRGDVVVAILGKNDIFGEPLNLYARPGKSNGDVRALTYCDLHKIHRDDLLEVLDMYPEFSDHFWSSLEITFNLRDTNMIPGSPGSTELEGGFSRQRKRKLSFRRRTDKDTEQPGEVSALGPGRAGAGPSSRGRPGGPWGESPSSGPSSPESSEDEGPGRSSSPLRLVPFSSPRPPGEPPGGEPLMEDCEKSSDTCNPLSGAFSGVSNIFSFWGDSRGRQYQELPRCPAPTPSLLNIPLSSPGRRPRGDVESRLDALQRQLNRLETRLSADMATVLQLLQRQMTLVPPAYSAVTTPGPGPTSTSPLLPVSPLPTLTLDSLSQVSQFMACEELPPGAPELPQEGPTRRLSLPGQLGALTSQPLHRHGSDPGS
Experimental: Recombinant CHO (Chinese Hamster Ovary) cell line expressing the human ERG (ether-a-go-go related gene) potassium channel (Cytomyx Catalogue Number: CYL3002) has been cultured according to the following protocol. When necessary a culture has been restarted from frozen aliquots. The aliquots of frozen cells (1 mL) were rapidly warmed to 37° C. and first replated in a 75 cm^2 flask (Corning). The volume was then adjusted to 10 mL with the α-Minimum Essential Medium (Gibco 32571-028) containing 10% fetal calf serum. The medium has been renewed after 24 h and 1% geneticin (G418, Gibco 10131) has been added to prevent cellular derivation. […]
The hERG current was activated in response to voltage steps (2 s) from a holding potential of −80 mV to a test potential of +20 mV followed by a repolarization to −100 mV. Voltage steps were applied at 20 s intervals. hERG current was measured as the tail deactivating current at −100 mV. After a 3 minutes period for baseline measurements, compound A effects were measured 4-6 minutes after the change of solution.
The currents were analyzed using a database and analysis software DataXpress 1.0 (Axon Instruments/Molecular Devices).
Where “I” was the current measured after drug effect, “Irisperidone” was the current measured after the effect of the specific hERG-blocker and “Ibaseline” was the current measured before the superfusion of drug.

S1P1 = S1P1 (Homo sapiens, UniProt P21453); experiment: Impedance assay (CEREP), CHO; assay type: cell-based; set-up: host or cells: CHO (PathHunter); conditions: 10% FBS + 0.1% BSA
Sequence of S1P1 (P21453 whole entry): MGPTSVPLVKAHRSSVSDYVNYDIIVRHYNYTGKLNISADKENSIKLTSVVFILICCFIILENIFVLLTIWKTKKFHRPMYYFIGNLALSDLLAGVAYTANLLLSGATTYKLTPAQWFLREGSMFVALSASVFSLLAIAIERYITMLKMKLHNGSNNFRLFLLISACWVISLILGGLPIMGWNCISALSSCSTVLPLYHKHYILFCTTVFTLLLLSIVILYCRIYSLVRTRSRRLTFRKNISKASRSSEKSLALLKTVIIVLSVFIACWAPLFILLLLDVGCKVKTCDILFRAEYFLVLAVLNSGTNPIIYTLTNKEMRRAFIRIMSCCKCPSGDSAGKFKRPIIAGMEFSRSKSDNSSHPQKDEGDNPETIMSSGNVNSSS
Source text: The Impedance Assay from CEREP was used to determine the EC50 activity of compound A, BAF-312 and fingolimod on S1P1.

pERK and pAKt = experiment: Akt and ERK1/2 phosphorylations in RPTEC cells; assay type: cell-based; conditions: Homo sapiens, read-out: EC50 induction of pERK and pAKt in RPTEC
Experimental: RPTEC cells (Lonza) were seeded at 0.3×10^6 cells per well in 6 multiwell plates in 2 mL per well complete REBM/REGM medium (Lonza) for 24 hours. Cells were starved […] for an additional 24 hour period in 900 μL quiescent medium. Increasing concentrations of compound A (10×) were added under the volume of 100 μL in each well for 10 minutes at 37° C. When used, tunicamycin (100 μL) was added 30 min prior to compound A addition. After medium removal, cells were rinsed with cold PBS and lysed on ice in 100 μL cold RIPA buffer containing 1% triton, proteases and phosphatases inhibitors. For western blotting, 30 μg of total protein lysate were loaded in 4-12% bis-tris gels (Invitrogen). Following migration and transfer, nitrocellulose membranes were probed with anti phospho-Akt (Phospho-Ser473, Cst #9271) and anti phospho-Erk1/2 (phopsho-Tyr202/Tyr204, Cst #4377). Tubuline labelling with anti α-Tubuline (Cst #2144) was used for normalization after densitometric analysis of the films.

[2] = tested on: isolated rabbit Purkinje fibers; experiment: Rabbit Purkinje fibers assay
Experimental: The effects of compound A on resting membrane potential and action potential parameters recorded from isolated rabbit Purkinje fibers (male, New Zealand rabbits; 1.3 to 1.5 kg; 9-12 weeks of age) were evaluated through a microelectrode technique. […] The fibers were superfused with an oxygenated physiological solution containing (in mmol/L): NaCl, 120; KCl, 4; MgCl2, 1; NaH2PO4, 1.8; NaHCO3, 25; glucose, 11; CaCl2, 1.8; pH=7.4, at 36±1° C. Compound A was first dissolved into DMSO to obtain a 12 mmol/L stock solution. This solution was further diluted into DMSO and then added into the physiological solution to obtain the appropriate nominal concentrations of 0.3, 1, 3, 10 and 30 μmol/L (i.e., 0.1, 0.5, 1.4, 4.5 and 13.6 μg/mL of active ingredient, respectively). The final concentration of DMSO in the test formulation was kept constant at 0.25% (v/v) in the physiological solution. Purkinje fibers (n=4) were first superfused by the physiological solution. After a 30-minute control period, test compound was evaluated at increasing concentrations sequentially applied, every 30 minutes. For each tested concentration, the fibers were stimulated at the basal rate of 1 pulse per second (1 Hz). […]

[3] = tested on: peripheral blood lymphocytes; experiment: Mouse lymphopenia studies; assay type: in vivo; conditions: 3 and 10 mg/kg, mice
Experimental: Male C57BI6/J mice (n=8, 25-30 g) (Charles River Laboratory, France) received a single oral administration of compound A at 1, 3, 10 and 30 mg/kg or vehicle article (methylcellulose 0.6%—tween 80 0.5% in water) within a volume of administration of 10 mL/kg. Blood was collected at 2, 6 and 24 h following compound administration for haematology analysis to determine whole blood lymphocyte count. Results are expressed as mean+/−s.e.m.

**Q.** Cc1cc(-c2nc3cnc(Oc4cccc(Cl)c4)nc3o2)cc(C)c1OCC(=O)O [Compound A, {4-[5-(3-chloro-phenoxy)-oxazolo[5,4-d]pyrimidin-2-yl]-2,6-dimethyl-phenoxy}-acetic acid] was tested. Which IC50 [1] did it give?
**A.** > 30000 nM

**Q.** And the EC50 (S1P1)?
**A.** 65 nM

**Q.** What about the EC50 (pERK and pAKt; after tunicamycin injury) of the same compound?
**A.** ~10000 nM

**Q.** What about the EC50 (pERK and pAKt; basal conditions) of the same compound?
**A.** ~3000 nM

**Q.** And the “Effect on action potential” value ([2]; 26 μM)?
**A.** shortening of the action potential

**Q.** What about the “Effect on resting membrane potential and action potential parameters” value ([2]; 0.3 to 10 μM) of the same compound?
**A.** no significant effect

**Q.** What about the Lymphopenic activity [3] of the same compound?
**A.** no lymphopenic activity
